Laboratory results: US8937072B2, “Substituted cyanoaniline compounds, preparation and use thereof” (Sinochem Corporation, priority 2011, dated 2015)
Read-outs that look alike come from different tables or passages of the source.

Assays:
[1] = system: wheat powdery mildew; experiment: Protectant activity in vivo (whole plant) against wheat powdery mildew; details: Triticum aestivum, 168 h; dose 400 mg/L
Description: The method is as followed: The whole plant is used in this test. The compound is dissolved in a proper solvent to get mother solution. The proper solvent is selected from acetone, methanol, DMF and so on according to their dissolving capability to the sample. The volume rate of solvent and testing solution (v/v) is equal to or less than 5%. The mother solution is diluted with water containing 0.1% tween-80 to get the testing solution whose concentration is designed. The testing solution is sprayed to the host plant by a special plant sprayer. The plant is inoculated with fungus after 24 hours. According to the infecting characteristic of fungus, the plant is stored in a humidity chamber and then transferred into greenhouse after infection is finished. And the other plants are placed in greenhouse directly. The activity of compound is obtained by eyeballing after 7 days in common.

[2] = system: blast of rice; details: at 500 ppm; cited from earlier work
[3] = system: rice blast; experiment: microbe, parasite or virus in culture; format: cell-based; details: Pyricularia oryzae
[4] = system: corn rust; experiment: Protectant activity in vivo (whole plant) against corn rust; details: Zea mays, 168 h
Method in brief: (§1)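 Compound stock in organic solvent (≤5% v/v) diluted in water with 0.1% Tween-80 and sprayed onto whole host plants. Fungal inoculation 24 h later; humidity chamber then greenhouse as the pathogen requires. Activity rated visually, usually after 7 days.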

[5] = system: canker of citrus fruit; details: at 500 ppm; cited from earlier work
[6] = system: cucumber downy mildew; experiment: Protectant activity in vivo (whole plant) against cucumber downy mildew; details: Cucumis sativus, 168 h
Method in brief: as §1

[7] = system: pear scab; details: in vivo; cited from earlier work
[8] = system: cucumber gray mold; experiment: Activity in vitro (96-well, High Through Put): inhibition rate against cucumber gray mold; format: cell-based
Method in brief: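 Compound in acetone, methanol or DMF was combined with pathogen suspension under sterile conditions and held in a constant-temperature box. After 24 hours germination or growth was scored by eye against an untreated control to give the inhibition rate.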

N#Cc1c(F)c(F)c(Nc2ccc(Cl)cc2)c(C#N)c1F [KC8]
pest or weed control at 400 µg/mL [1]: 0%
bacteriostatic diameter against blast of rice [2]: 10.2 mm
inhibition at 0.03 µg/mL ([3]; read-out: the inhibition rate against rice blast (%) 0.03 mg/L): 0%
inhibition at 0.1 µg/mL ([3]; read-out: the inhibition rate against rice blast (%) 0.1 mg/L): 0%
inhibition at 0.3 µg/mL ([3]; read-out: the inhibition rate against rice blast (%) 0.3 mg/L): 0%
pest or weed control at 6.25 µg/mL ([4]; 6.25 mg/L): 0%
pest or weed control at 25 µg/mL ([4]; 25 mg/L): 0%
pest or weed control at 100 µg/mL ([4]; 100 mg/L): 0%
pest or weed control at 400 µg/mL ([4]; 400 mg/L, read-out: the protectant activity (%) against corn rust): 0%
pest or weed control at 400 µg/mL ([4]; dose 400 mg/L, read-out: protectant activity against corn rust in vivo): 0%
bacteriostatic diameter against canker of citrus fruit [5]: 0 mm
pest or weed control at 12.5 µg/mL ([6]; 12.5 mg/L): 0%
pest or weed control at 25 µg/mL ([6]; 25 mg/L, read-out: the protectant activity (%) against cucumber downy mildew): 0%
pest or weed control at 50 µg/mL ([6]; 50 mg/L, read-out: the protectant activity (%) against cucumber downy mildew): 0%
pest or weed control at 100 µg/mL ([6]; 100 mg/L, read-out: the protectant activity (%) against cucumber downy mildew): 0%
pest or weed control at 400 µg/mL ([6]; dose 400 mg/L): 0%
control against pear scab [7]: 90%
inhibition at 0.3 µg/mL ([8]; 0.3 mg/L): 0%
inhibition at 0.9 µg/mL ([8]; 0.9 mg/L, read-out: the inhibition rate against cucumber gray mold (%)): 0%
inhibition at 2.8 µg/mL ([8]; 2.8 mg/L, read-out: the inhibition rate against cucumber gray mold (%)): 0%
inhibition at 8.3 µg/mL ([8]; 8.3 mg/L, read-out: the inhibition rate against cucumber gray mold (%)): 0%
inhibition at 8.3 µg/mL ([8]; in vitro, dose 8.3 mg/L, read-out: inhibition rate against cucumber gray mold): 0%
